Measurements published in patent US5969098A, “Yeast-toxin-related protein for antimicrobial vaccine and sterilizing preservative use” (CyberChemics, Inc., priority 1997, dated 1999).
Where no end group is shown, it is not given here.

System: human red blood cells
Assay: hemolysis of human red blood cells in whole blood (extracellular hemoglobin, spectrophotometric)
Format: cell-based
Details: human red blood cells exposed in whole blood, peptide concentration 63 ug/mL
Description: Table III lists the approximate pharmacokinetics of synthetic peptides described in the present invention which solubilize readily, persist in conformationally active secondary structures in vivo, and induce lysis of representative bacteria, yeast and fungi. These determinations derive from optical density readings (O.D.) and rely on spectrophotometric absorbance from known initial concentrations as reference standards. It is worth noting that although the peptide antimicrobials show 30+% homology with the yeast killer toxin beta subunit fragment, they have very favorable safety profiles on mammalian cells. For example, when human red blood cells are exposed in whole blood to SEQ. […] Perhaps, as significant, the safety profile derives from very specific amino acid substitutions, since substitution for less than 20% of the amino acids in SEQ. 1 renders SEQ. 2 hemolytic to 20% at 63 ug/mL and 35% substitution in SEQ. 1 renders SEQ. 3 hemolytic to 100%. Therefore, sequence identity and variation translate directly to the functional balance between microbial inhibition and mammalian safety. The optimal therapeutic index for dosage and effective antimicrobial inhibition of a particular polypeptide or salt thereof follow routinely without elaborate laboratory determinations by those skilled in the art of pharmacokinetics and metabolic pathways using, for instance, various cytochrome and liver enzymes in vivo.

Sequence	hemolysis
LLLLKKLLKLMNLLKKLGHY [SEQ. 3]	100%
LLLLKLLLKKNPKLKKLIGV [SEQ. 2]	20%
LVLLKKLMKKYKKLKKLGGL [SEQ. 1]	no hemolysis is detectable
